Consider 4 compounds from PMC5164911, “Comparative Analysis of the Interaction between Different Flavonoids and PDIA3” (Oxidative Medicine and Cellular Longevity, 2016).

Like-named read-outs stand apart in the source and are kept apart here.

The target in assay [1] is T1, PDIA3 (Homo sapiens, UniProt P30101).
T1 construct: made in house; host or cells: E. coli BL21 (vector pET21)
T1 sequence (P30101 25-505): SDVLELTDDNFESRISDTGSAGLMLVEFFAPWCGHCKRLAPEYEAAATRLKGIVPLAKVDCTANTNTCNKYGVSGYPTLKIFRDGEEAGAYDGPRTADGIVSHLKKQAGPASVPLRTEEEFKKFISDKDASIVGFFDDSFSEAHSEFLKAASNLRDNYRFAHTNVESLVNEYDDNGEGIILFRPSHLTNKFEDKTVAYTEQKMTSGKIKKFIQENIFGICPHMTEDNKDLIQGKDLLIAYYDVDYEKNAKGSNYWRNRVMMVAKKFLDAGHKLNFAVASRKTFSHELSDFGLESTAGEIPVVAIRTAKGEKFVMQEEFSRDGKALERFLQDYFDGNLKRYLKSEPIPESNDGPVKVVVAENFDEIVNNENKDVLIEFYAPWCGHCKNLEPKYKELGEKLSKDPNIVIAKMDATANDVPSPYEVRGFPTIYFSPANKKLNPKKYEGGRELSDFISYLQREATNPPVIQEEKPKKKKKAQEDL
To be noted: cited from earlier work.

Assay [2] has as its target T1, PDIA3. Also noted: method as in Trnková et al. [30]. The conditions noted are these: Figure 8, unit inferred; ref Trnková et al. [30]; read-out: Dissociation constant (Kd); cited from earlier work.
Assay [3] deals with T1, PDIA3. To be noted: cited from earlier work. This is another data set of the same source.
Assay [4] concerns the target T1, PDIA3. Briefly: Fluorescence quenching titration of PDIA3 intrinsic fluorescence. The class given is binding. The conditions noted are these: for Stern-Volmer constant (K SV): 0.5∗10^−6 M PDIA3 in reduced conditions, pH 7.4, 25°C, flavonoid 0 to 10∗10^−6 M, mean and standard deviation; for bimolecular quenching rate constant (K q): K SV = K q τ0 with τ0 of the order of 10^−8 s; for binding constant (K b): equation of Bi et al., reiterative calculation of Sun et al. As to the method: Quantitative analysis of the interaction between individual flavonoids and PDIA3 was performed by fluorimetric titration. […] Briefly, solution of PDIA3 (0.5 μM) or a and a′ domains (1 μM) in phosphate buffered saline (PBS) containing DTT 0.1 mM and EDTA 0.2 mM were titrated in quartz cuvette by stepwise additions, at 5 min time intervals, of individual flavonoid solution (1 mM in PBS/ethanol 50 : 50 v/v freshly prepared from a 20 mM stock solution in DMSO). […] To minimize the inner-filter effect we limited the highest concentration reached in the titration test up to 10 μM. All experiments were carried out at 25°C. Each spectrum was the mean of three repeated scans. Fluorescence spectra of appropriate blanks (flavonoids without proteins) were recorded under the same experimental conditions and subtracted from the corresponding flavonoid-protein system to correct the fluorescence background.
Quenching analysis was performed on PDIA3 (0.5 μM), in the reduced form, by adding stepwise increasing concentration of each molecule and recording the protein fluorescence spectra. For some flavonoids the analysis was extended to isolate a′ domain (1 μM), always in the reduced form. […] For each ligand molecule the Stern-Volmer quenching constant was obtained by linear regression of plots of F 0/F versus [L].
The Stern-Volmer quenching constant may be expressed as K SV = K q τ 0, where K q is the quencher rate coefficient and τ 0 is the average lifetime of the emissive excited state of the protein in the absence of the quencher.
The number of binding sites (n) and the binding constant (K b) were obtained by plotting log((F 0 − F)/F) versus log(1/([L t] − n(F 0 − F)[P t]/F 0)) using the reiterative calculation process described by Sun et al., assuming a similar affinity for each binding site.

The target in assay [5] is T1, PDIA3. Briefly: DNA binding activity by EMSA. It counts as biochemical. To be noted: flavonoid 0 to 50 μM. As to the method:
EMSA assay was performed using a 79-bp […] obtained by PCR as previously described. Amplified DNA was end-labeled by using 5-fluorescein-modified primers. 10 ng of DNA fragment was incubated with 1 μg of PDIA3 or a′ domain, in presence of increasing concentration of flavonoids (from 0 to 50 μM). Controls were performed using DNA alone and in the presence of each flavonoid. All tests were performed in 20 μl mixtures containing 20 mM Tris-HCl, pH 7.5, 50 mM NaCl, and 10% (v/v) glycerol. Samples were incubated for 1 hour at 25°C and then resolved on 5% polyacrylamide gels in 0,25% TBE buffer (22.5 mM Tris-borate, 5 mM EDTA, pH 8.3) at 150 V. Gel images were recorded using a ChemiDoc MP Imaging System (BioRad) equipped with an epi-blue excitation lamp and a 520 nm emission filter.
In general terms: Mobility shift assays separate free from complexed probe on a gel.

Assay [6] concerns the target T1, PDIA3. The experiment in a line: Disulfide reductase activity with DiE-GSSG fluorogenic probe. The conditions noted are these: DiE-GSSG substrate; for Inhibition of disulfide reductase (redox) activity: 20 μM flavonoid (Figure 7). It counts as biochemical. As to the method: Disulfide reductase activity of ERp57 was monitored by sensitive fluorescent assay using dieosin glutathione disulfide (DiE-GSSG) as fluorogenic probe. DiE-GSSG was synthesized by the reaction of eosin isothiocyanate with oxidized glutathione (GSSG) according to the method of Raturi and Mutus with some modifications. DiE-GSSG concentration was determined spectrophotometrically (ℇ 525 = 88,000 M^-1 cm^−1). Disulfide reductase activity was assayed in a reaction buffer containing 2 mM EDTA, 150 nM DiE-GSSG, and 5 μM DTT in PBS. A 20 μl aliquot of a stock solution of PDIA3 (1 μM) was added to the reaction mixture and DiE-GSSG reduction was monitored at 545 nm with excitation at 520 nm, at 25°C with continuous stirring. Reductase activity was calculated as the initial velocity in fluorescence increase. To test the effect of flavonoids on PDIA3 activity, the protein stock solution was previously incubated for 15 minutes at room temperature with different concentrations of each flavonoid and then a 20 μl aliquot subjected to assay in a reaction buffer containing the same concentration of the flavonoid.
Fluorescence quenching constant (K SV) values were given as means ± standard deviation and values of disulfide reductase activity were expressed in % of control sample ± relative standard deviation. All measurements were performed at least three times. Dunnett's test was used to compare the obtained reductase activity data with the activity of the untreated protein and a p value of <0.01 was considered as statistically significant.

Assay [7] concerns the target T1, PDIA3. Briefly: Differential scanning fluorimetry (thermal stability, SYPRO Orange). It counts as binding. To be noted: 50 μM flavonoid, reduced PDIA3 1 μM. On the procedure: Protein stability was tested by the fluorescence-based thermal stability assay or differential scanning fluorimetry (DSF) developed by Pantoliano and coworkers. DSF records the fluorescence emission signal from the binding of a dye (SYPRO orange) to the exposed hydrophobic patches upon protein unfolding. Fluorescence measurements were performed using a CFX96 Connect RT-PCR instrument (BioRad). 18 μl aliquots of protein solution (1 μM), freshly diluted in Tris Buffered saline (50 mM TrisHCl, pH 8.0, 150 mM NaCl) containing 0.1 mM DTT, 0.2 mM EDTA, and 1 : 1000 dilution of SYPRO Orange (50 mM stock solution in DMSO), were distributed in a 96-well plate. Sample wells were addition of increasing concentration (up to 50 μM) of individual flavonoid by adding 2 μl of 10-fold concentrated stock solutions freshly prepared. As control, the protein solution was added with 2 μl of the dilution buffer. A melting point analysis was recorded increasing the temperature from 20 to 95°C with an increment of 0.5°C and reading, at each temperature, the fluorescence in fluorescence resonance energy transfer mode (FRET). Each measure was the average of three sample wells reading and each DSF experiment was repeated at least three times. To calculate T m values, DSF data from the melting curve were exported and fitted to Boltzman equation using GraphPad software. Effect of flavonoids was evaluated comparing the T m values in presence and absence of each molecule.
(In general: In DSF a fluorescence change marks the thermal transition of the protein.)

In assay [8] the target is PDIA3. On the set-up: method as in PMID 24530445. The conditions noted are these: cited from earlier work.
[9] abbreviates: K d = 1/K b, reduced PDIA3, pH 7.4, 25°C, read-out: dissociation constant (K d).

On to `O=C(OC1Cc2c(O)cc(O)cc2OC1c1cc(O)c(O)c(O)c1)c1cc(O)c(O)c(O)c1` (centres unmarked) [Epigallocatechin gallate, epigallocatechin gallate], for which, at PDIA3 [1] (ref Trnková et al. [30]), the “Effect on DNA binding” value is listed as “Inhibition”. Further, the Kd at PDIA3 [2] is 45.8 µM. Also, the “Inhibition of redox activity (%)” value at PDIA3 [3] (Figure 8, ref Trnková et al. [30]) is recorded as 21%.
As for `O=c1c(O)c(-c2ccc(O)c(O)c2)oc2cc(O)cc(O)c12` [Quercetin, quercetin], the “Stern-Volmer constant (K SV)” value at PDIA3 [4] was 46226 ± 1406 M⁻¹. Also, the Kd at PDIA3 [4] (Figure 8, no unit printed in the picture, read-out: Dissociation constant (Kd)) was 25.6 µM. For the same compound, on PDIA3 [4] (reduced PDIA3, pH 7.4, 25°C), the “bimolecular quenching rate constant (K q)” value came to 4.62e+12 M⁻¹ s⁻¹ and the “binding constant (K b)” value is 39000 M⁻¹. Besides, the Kd on PDIA3 [4] (setting [9]) was 25.6 µM. In addition, the “Effect on DNA binding activity of PDIA3” value on PDIA3 [5] is on record as “None”. Besides, on PDIA3 [6], the “Inhibition of disulfide reductase (redox) activity” value (“Inhibition of disulfide reductase” below) is 18% and the “Effect on disulfide reductase activity (in words)” value was “some inhibitory effect”. Also, at PDIA3 [6] (listed as quercetin), the “Inhibition of disulfide reductase” value is “approximately 20%”. Also, on PDIA3 [7], the “Increase in melting temperature (T m) of PDIA3” value is given as “increased more than three degrees”.
Take `COc1cc(C2Oc3cc([C@H]4Oc5cc(O)cc(O)c5C(=O)[C@@H]4O)ccc3OC2CO)ccc1O` (some centres unmarked) [silibinin]: at PDIA3 [1], the “Effect on DNA binding capability of PDIA3” value is reported as “no effect”. Further, the dissociation constant entry on PDIA3 [8] is listed as “within micromolar range”. In addition, the “Effect on redox activity of PDIA3” value on PDIA3 [3] is on record as “no effect”.
With `O=c1c(O)c(-c2ccc(O)cc2O)oc2cc(O)cc(O)c12` [Morin, morin], at PDIA3 [4], the “Stern-Volmer constant (K SV)” value is 24063 ± 265 M⁻¹. Further, on PDIA3 [4] (reduced PDIA3, pH 7.4, 25°C), the “bimolecular quenching rate constant (K q)” value was determined as 2.41e+12 M⁻¹ s⁻¹ and the “binding constant (K b)” value is 25600 M⁻¹. At PDIA3 [4] (setting [9]), the Kd was 39 µM. For the same compound, at PDIA3 [6], the “Inhibition of disulfide reductase” value was “approximately 20%” and the “Effect on disulfide reductase activity (in words)” value is on record as “some inhibitory effect”. In addition, the “Increase in melting temperature (T m) of PDIA3” value at PDIA3 [7] is listed as “increased more than three degrees”.
